# According to patent US10017542B2, “Antimicrobial peptides and methods of use thereof” (priority 2015, dated 2018):
# Where a SMILES comes first, the peptide text is derived from it. Where no end group is shown, it is not given here. [ ]: non-standard residue; d: D form. Orn = NCCC[C@H](N)C(=O)O
# What was measured:
# Pseudomonas aeruginosa = test: Killing of antibiotic resistant bacteria (FIG. 2); details: 1 hour time point after addition, single cell format
# Clostridium difficile = test: Killing of antibiotic resistant bacteria (FIG. 2); assay type: cell-based; details: 1 hour time point after addition, single cell format
# [1] = test system: S. aureus MRSA (G+) biofilm
# Protocol: (§1) The Minimum Biofilm Eradication Concentration (MBEC) Assay was used. MBEC values provide estimates on the concentration of an antimicrobial product required to kill biofilm bacteria. The Calgary Biofilm Device (CBD) plate was used to effect biofilm formation on a lid containing 96 pegs. Bacterial cultures were grown and diluted in Tryptic Soy Broth (TSB) to approximately 1×10^7 CFU/mL before inoculation of the CBD plate, which was then incubated for 24 hr at 35° C. on a shaker at 125 rpm.
# (§2) The peg lid containing biofilm was first rinsed in PBS to remove planktonic cells prior to treatment with 2-fold serial dilutions of test articles and control overnight at 35° C. The peg lid was rinsed in PBS twice before sonication in fresh media to disrupt biofilm adhered to the pegs. The plate was then incubated overnight to evaluate growth. Bacterial quantification was performed by measuring absorbance at 650 nm (A650). By definition, A650 reading of less than 0.1 indicates biofilm eradication.
# [2] = test system: S. epidermis (G+) biofilm
# Protocol: as §1, §2
# B. thailandensis = details: concentration required to kill 50% of B. thailandensis; 10 mM phosphate buffer, 3 h, 37° C.
# [3] = test system: P. aeruginosa (G−) biofilm
# Protocol: as §1, §2
# C. albicans = details: 24 h
# Protocol: (§3) Briefly, cells were grown overnight in media specified for each strain, and were diluted in the same media. Serial dilutions of the peptides were added to microtiter plates in a volume of 50 ul, followed by the addition of 50 ul of bacteria or fungi, 5×10^5 CFU/ml. Plates were incubated at 37 degrees for 24 hours and the Minimum Inhibitory Concentrations (MICs) were determined as the lowest peptide concentration that inhibited 50% of bacterial growth.
# C. krusei = details: 24 h
# Protocol: (§4) Measurement of antimicrobial and anti-fungal activity was determined by a standard micrometer dilution method. Briefly, cells were grown overnight in media specified for each strain, and were diluted in the same media. Serial dilutions of the peptides were added to microtiter plates in a volume of 50 ul, followed by the addition of 50 ul of bacteria or fungi, 5×10^5 CFU/ml. Plates were incubated at 37 degrees for 24 hours and the Minimum Inhibitory Concentrations (MICs) were determined as the lowest peptide concentration that inhibited 50% of bacterial growth.
# [4] = test system: fungal isolates of Table 8 (C. albicans, C. krusei, C. tropicalis)
# Protocol: as §4
# Staphylococcus aureus = test: Killing of antibiotic resistant bacteria (FIG. 2); details: 1 hour time point after addition, single cell format
# E. cloaca = details: 24 h
# Protocol: as §4
# E. coli = details: 24 h
# Protocol: as §4
# [5] = test system: bacterial isolates of Table 7 (A. baumanii, E. coli, E. cloaca, Pseudomonas, Staphylococcus)
# Protocol: as §3
# Protocol for A. baumanii (G−) biofilm: as §1, §2
Compound,killing of P. aeruginosa (Pseudomonas aeruginosa),killing of C. difficile (Clostridium difficile),Average MBEC [1] [µM],Average MBEC [2] [µM],EC50 (B. thailandensis) [µM],Average MBEC [3] [µM],Average MBEC (A. baumanii (G−) biofilm) [µM],other results
"CN[C@H](CC(C)C)C(=O)N[C@H]1C(=O)N[C@@H](CC(N)=O)C(=O)N[C@H]2C(=O)N[C@H]3C(=O)N[C@H](C(=O)N[C@H](C(=O)O)c4cc(O)cc(O)c4-c4cc3ccc4O)[C@H](O)c3ccc(c(Cl)c3)Oc3cc2cc(c3O[C@@H]2O[C@H](CO)[C@@H](O)[C@H](O)[C@H]2O[C@H]2C[C@](C)(N)[C@H](O)[C@H](C)O2)Oc2ccc(cc2Cl)[C@H]1O [vancomycin, reference compound]",not effective,not effective,,,,,,
"C[C@H](NC(=O)[C@H](Cc1ccccc1)NC(=O)[C@H](C)NC(=O)[C@@H](N)Cc1ccccc1)C(=O)N[C@@H](Cc1ccccc1)C(=O)N[C@@H](CCCN)C(=O)N[C@@H](C)C(=O)N[C@@H](Cc1ccccc1)C(=O)N[C@@H](CCCN)C(=O)N[C@@H](CCCN)C(=O)N[C@@H](C)C(=O)N[C@@H](Cc1ccccc1)C(=O)N[C@@H](CCCN)C(=O)N[C@@H](CCCN)C(=O)N[C@@H](Cc1ccccc1)C(=O)N[C@@H](CCCN)C(=O)N[C@@H](CCCN)C(=O)N[C@@H](C)C(=O)N[C@@H](Cc1ccccc1)C(=O)N[C@@H](CCCN)C(=O)N[C@@H](CCCN)C(=O)N[C@@H](C)C(=O)N[C@@H](Cc1ccccc1)C(=O)O [RP443, FAFAFOAFOOAFOOFOOAFOOAF] (H-FAFAF[Orn]AF[Orn][Orn]AF[Orn][Orn]F[Orn][Orn]AF[Orn][Orn]AF-OH; N-terminus and C-terminus assumed)",,,7.36,3.68,55.6,57.62,3.68,
"C[C@H](N)C(=O)N[C@@H](Cc1ccccc1)C(=O)N[C@@H](C)C(=O)N[C@@H](Cc1ccccc1)C(=O)N[C@H](C(=O)N[C@@H](C)C(=O)N[C@@H](CCCN)C(=O)N[C@@H](CCCN)C(=O)N[C@@H](CCCN)C(=O)N[C@@H](Cc1ccccc1)C(=O)N[C@@H](C)C(=O)N[C@@H](CCCN)C(=O)N[C@@H](Cc1ccccc1)C(=O)N[C@@H](CCCN)C(=O)N[C@@H](C)C(=O)N[C@@H](CCCN)C(=O)N[C@@H](Cc1ccccc1)C(=O)N[C@@H](C)C(=O)N[C@@H](CC(N)=O)C(=O)N[C@@H](Cc1ccccc1)C(=O)N[C@@H](C)C(=O)N[C@@H](Cc1ccccc1)C(=O)N[C@@H](C)C(=O)NCC(=O)N[C@@H](Cc1ccccc1)C(=O)N[C@@H](CC(N)=O)C(=O)N[C@@H](C)C(=O)O)[C@@H](C)O [RP508, AFAFTAOOOFAOFOAOFANFAFAGFNA] (H-AFAFTA[Orn][Orn][Orn]FA[Orn]F[Orn]A[Orn]FANFAFAGFNA-OH; N-terminus and C-terminus assumed)",,,,,,,,IC50 (C. albicans): 38.3 µM; IC50 (C. krusei): 38.3 µM; IC50 [4]: 46 µM
"CC[C@H](C)[C@H](NC(=O)[C@H](CS)NC(=O)[C@H](Cc1ccccc1)NC(=O)[C@H](CCCNC(=N)N)NC(=O)CNC(=O)[C@H](CC(C)C)NC(=O)[C@H](CS)NC(=O)[C@H](CC(C)C)NC(=O)[C@H](CCCCN)NC(=O)[C@H](C)NC(=O)[C@H](CCCNC(=N)N)NC(=O)[C@@H](NC(=O)[C@@H](N)CCCCN)[C@@H](C)CC)C(=O)N[C@@H](CCCNC(=N)N)C(=O)N[C@@H](C)C(=O)N[C@@H](CCCCN)C(=O)N[C@@H](CC(C)C)C(=O)N[C@@H](CCCNC(=N)N)C(=O)O [RP439, KIRAKLCLGRFCIRAKLR] (H-KIRAKLCLGRFCIRAKLR-OH)",effective in killing,effective in killing,,,,,,killing of S. aureus (Staphylococcus aureus): effectively killed
CPGFAKKFAKKFKKFAKKFAKFAFAF [RP438],,,12.89,12.89,11.2,51.43,6.45,
"C[C@H](NC(=O)[C@H](Cc1ccccc1)NC(=O)[C@H](C)NC(=O)[C@H](Cc1ccccc1)NC(=O)[C@H](CCCN)NC(=O)[C@H](C)NC(=O)[C@H](Cc1ccccc1)NC(=O)[C@H](CCCN)NC(=O)[C@H](CCCN)NC(=O)[C@H](C)NC(=O)[C@H](Cc1ccccc1)NC(=O)[C@H](CCCN)NC(=O)[C@H](CCCN)NC(=O)[C@H](Cc1ccccc1)NC(=O)[C@H](CCCN)NC(=O)[C@H](CCCN)NC(=O)[C@H](C)NC(=O)[C@H](Cc1ccccc1)NC(=O)[C@H](CCCN)NC(=O)[C@H](CCCN)NC(=O)[C@H](C)NC(=O)[C@@H](N)Cc1ccccc1)C(=O)N[C@@H](Cc1ccccc1)C(=O)O [RP444, FAOOFAOOFOOFAOOFAOFAFAF] (H-FA[Orn][Orn]FA[Orn][Orn]F[Orn][Orn]FA[Orn][Orn]FA[Orn]FAFAF-OH; N-terminus and C-terminus assumed)",,,14.41,14.41,14.8,57.62,3.68,
FAFAFAFKKAFKKFKKAFKKAF [RP442],effective in killing,effective in killing,14.68,14.68,0.95,234.28,1.87,killing of S. aureus (Staphylococcus aureus): effectively killed
"CC[C@H](C)[C@H](NC(=O)[C@H](CCCNC(=N)N)NC(=O)[C@H](C)NC(=O)[C@H](CC(C)C)NC(=O)[C@H](CCCNC(=N)N)NC(=O)[C@@H](N)CS)C(=O)N[C@H](C(=O)N[C@@H](CS)C(=O)NCC(=O)NCC(=O)N[C@@H](Cc1ccccc1)C(=O)N[C@@H](C)C(=O)N[C@@H](CCCN)C(=O)N[C@@H](CCCN)C(=O)N[C@@H](Cc1ccccc1)C(=O)N[C@@H](C)C(=O)N[C@@H](CCCN)C(=O)N[C@@H](CCCN)C(=O)N[C@@H](Cc1ccccc1)C(=O)N[C@@H](CCCN)C(=O)N[C@@H](CCCN)C(=O)N[C@@H](Cc1ccccc1)C(=O)N[C@@H](C)C(=O)N[C@@H](CCCN)C(=O)N[C@@H](CCCN)C(=O)N[C@@H](Cc1ccccc1)C(=O)N[C@@H](C)C(=O)N[C@@H](CCCN)C(=O)N[C@@H](Cc1ccccc1)C(=O)N[C@@H](C)C(=O)N[C@@H](Cc1ccccc1)C(=O)N[C@@H](C)C(=O)N[C@@H](Cc1ccccc1)C(=O)O)C(C)C [RP501, CRLARIVCGGFAOOFAOOFOOFAOOFAOFAFAF] (H-CRLARIVCGGFA[Orn][Orn]FA[Orn][Orn]F[Orn][Orn]FA[Orn][Orn]FA[Orn]FAFAF-OH; N-terminus and C-terminus assumed)",,,,,,,,IC50 (E. cloaca): 14.5 µM; IC50 (E. coli): 7.3 µM; IC50 [5]: 13.6 µM
